# Legend:
# Akt [1] = experiment: Western blotting of phosphorylated Akt in SK-BR-3 cells; assay type: cell-based, human; details: Example 4, medium glucose 0.1 mg/mL, 5 mg/mL, two hours
# Experimental: (§1) HER2-expressing human cancer cell line SK-BR-3 (purchased from ATCC) was seeded into a 24-multiwell plate (4.0 x 10^5 cells/well) and cultured overnight in a carbon dioxide gas incubator (5% CO2, 37°C). Then, the medium was exchanged for a medium with a glucose content of 0.1 mg/mL and cultured for another 2 hours. A glucose antimetabolite 2-deoxyglucose was added to a final concentration of 5 mg/mL. Two hours later, the broth was removed and the cells were lysed with an SDS sample buffer (200 µL). This cell lysate (8 µL) was separated by an SDS-PAGE method (gel concentration: 7.5-15%) (Shagger et al., Analytical Biochemistry, No. 166, pp. 368-379, 1987). Then, western blotting analysis was performed in the same manner as in Example 1 to detect phosphorylated HER2, phosphorylated Akt and phosphorylated MAPK.
# HER2 [2] = experiment: Western blotting of phosphorylated HER2 in SK-BR-3 cells; assay type: cell-based, human; details: Example 4, medium glucose 0.1 mg/mL, 5 mg/mL, two hours
# Experimental: as §1
# MAPK [3] = experiment: Western blotting of phosphorylated MAPK in SK-BR-3 cells; assay type: cell-based, human; details: Example 4, medium glucose 0.1 mg/mL, 5 mg/mL, two hours
# Experimental: as §1
# [4] = system: MDA-MB-231 breast cancer cell; experiment: Viable cell count using Cell Counting Kit-F; assay type: cell-based; details: five days of culture
# Experimental: (§2) BT-474 breast cancer cell, MDA-MB-453 breast cancer cell, A549 non-small cell lung cancer cell and LNCaP prostate cancer cell were used as human HER2-expressing cells while MDA-MB-231 breast cancer cell and A498 kidney cancer cell (all purchased from ATCC) were used as HER2-nonexpressing cells. Each of the cells used had been seeded into a 96-plate at 500cells/150 µL/well and cultured overnight. Each of the compounds, i.e., antimycin (final concentrations: 1, 0.1, 0.01 and 0.001 µmol/L), 2,4-dinitrophenol (final concentrations: 0.6, 0.2, 0.06 and 0.02 mmol/L), metformin (final concentrations: 25, 5, 1 and 0.2 mmol/L) and AICAR (final concentrations: 25, 5, 1 and 0.2 mmol/L) was diluted with a medium and added for 50 µL/well at a time to the final concentrations mentioned above. Following five days of culture at 37°C in 5% CO2, the cells were counted using Cell Counting Kit-F (Dojindo Laboratories).
# (§3) Viable cell count using Cell Counting Kit-F was carried out by the following method according to the attached instruction. The supernatant was removed from the 96-well plate after five days of culture. Cell Counting Kit-F diluted 1000-fold with an RPMI medium (phenol red-free, serum-free) was added for 100 µL/well at a time. After 30 minutes of reaction at room temperature, fluorescence (excitation wavelength; 480 nm, fluorescent wavelength; 530 nm) was determined with a fluorescent plate reader.
# (§4) From the determination results, percentage of the fluorescence level in the wells added with the compound was determined assuming that the fluorescence level in the wells without the addition of the compound (control) is 100%, and the remaining cellular quantity was determined in % with respect to that of the control.
# (§5) BT-474 breast cancer cell, MDA-MB-453 breast cancer cell and LNCaP prostate cancer cell were used as human HER2-expressing cells while MDA-MB-231 breast cancer cell and A498 kidney cancer cell (all purchased from ATCC) were used as HER2-nonexpressing cells. Each of the cells used had been seeded into a 96-well plate at 500 cells/150 µL/well and cultured overnight. Troglitazone (final concentrations: 25, 6.25 and 1.56 µmol/L) was diluted with a medium, and added for 50 µL/well at a time to the final concentrations mentioned above. Following five days of culture at 37°C in 5% CO2, the cells were counted using Cell Counting Kit-F (Dojindo Laboratories).
# as §4, with “troglitazone” for “the compound”
# A498 kidney cancer cell = experiment: Viable cell count using Cell Counting Kit-F; assay type: cell-based; details: five days of culture
# Experimental: as §2, §3, §4, §5
# as §4, with “troglitazone” for “the compound”
# MAPK [5] = experiment: Western blotting of phosphorylated MAPK in BT-474 cells; assay type: cell-based, human
# Experimental: (§6) Human HER2-expressing human breast cancer cell line BT-474 (purchased from American Tissue Culture Collection (ATCC)) was seeded into a 24-multiwell plate (BT-474: 1.2 x 10^5 cells/well), and cultured overnight in a carbon dioxide gas incubator (5% CO2, 37°C). A 4-fold dilution series of a mitochondrial respiratory chain complex inhibiting compound (complex I: rotenone, complex III: antimycin, complex V: oligomycin: Wako Pure Chemical Industries) was added starting from a final concentration of 1 µmol/L in 5 steps while continuing culture. After 2 hours, the broth was removed, and the cells were lysed with an SDS sample buffer (200 µL). Western blotting analysis was performed as follows. Specifically, this cell lysate (8 µL) was separated by an SDS-PAGE method (gel concentration: 7.5-15%) (Analytical Biochemistry, No. 166, pp. 368-379, 1987), and transferred to a nitrocellulose membrane (BioRad). Then, an antibody specific to phosphorylated HER2 (Cell signaling technology, Code# 2244), an anti-phosphorylated Akt antibody specific to downstream antiapoptotic signal transducing molecule Akt (Cell signaling technology, Code# 9271) and an anti-phosphorylated MAPK antibody specific to downstream proliferation signal transducing molecule MAPK (Cell signaling technology, Code# 9101) were used to detect the antibody with an ECL system (Amersham) to quantify the amount of phosphorylated protein by an image analysis.
# (§7) Human HER2-expressing human cancer cell line BT-474 (purchased from ATCC) was seeded into a 24-multiwell plate (1.2 x 10^5 cells/well) and cultured overnight in a carbon dioxide gas incubator (20% O2, 5% CO2, 37°C). A 3-fold dilution series of metformin that activates AMPK (The Journal of Biological Chemistry, Vol. 279, No. 42, pp. 43940-43951, 2004) was added starting from a final concentration of 15 mmol/L in 5 steps while continuing culture. Two hours later, the broth was removed and the cells were lysed with an SDS sample buffer (200 µL). This cell lysate (8 µL) was separated by an SDS-PAGE method (gel concentration: 7.5-15%) (Analytical Biochemistry, No. 166, pp. 368-379, 1987). Then, western blotting analysis was performed in the same manner as in Example 1 to quantify phosphorylated HER2, phosphorylated Akt and phosphorylated MAPK.
# [6] = system: A549 non-small cell lung cancer cell; experiment: Viable cell count using Cell Counting Kit-F; assay type: cell-based, human; details: HER2-expressing cancer, five days of culture
# Experimental: as §2, §3, §4
# [7] = system: BT-474 breast cancer cell; experiment: Viable cell count using Cell Counting Kit-F; assay type: cell-based, human; details: five days of culture
# Experimental: as §2, §3, §4, §5
# as §4, with “troglitazone” for “the compound”
# [8] = system: LNCaP prostate cancer cell; experiment: Viable cell count using Cell Counting Kit-F; assay type: cell-based, human; details: five days of culture
# Experimental: as §2, §3, §4, §5
# as §4, with “troglitazone” for “the compound”
# [9] = system: MDA-MB-453 breast cancer cell; experiment: Viable cell count using Cell Counting Kit-F; assay type: cell-based, human; details: five days of culture
# Experimental: as §2, §3, §4, §5
# as §4, with “troglitazone” for “the compound”
# DU145 = experiment: Viable cell count using Cell Counting Kit-F; assay type: cell-based; details: HER2-nonexpressing cancer, five days of culture
# Akt [10] = experiment: Western blotting of phosphorylated Akt in BT-474 cells; assay type: cell-based, human
# Experimental: as §6, §7
# HER2 [11] = experiment: Western blotting of phosphorylated HER2 in BT-474 cells; assay type: cell-based, human
# Experimental: as §6, §7
# Human HER2-expressing human breast cancer cell line BT-474 (purchased from American Tissue Culture Collection (ATCC)) was seeded into a 24-multiwell plate (BT-474: 1.2 x 10^5 cells/well), and cultured overnight in a carbon dioxide gas incubator (5% CO2, 37°C). Mitochondrial respiratory chain complex 1-inhibiting compound rotenone (Wako Pure Chemical Industries) was added in 5 steps at final concentrations of 1, 0.333, 0.111, 0.033 and 0.011 µmol/L while continuing culture. Two hours later, the broth was removed and the cells were lysed with an SDS sample buffer (200 µL). Then, this cell lysate was used to perform western blotting analysis. Specifically, this cell lysate (8 µL) was separated by an SDS-PAGE method (gel concentration: 7.5-15%) (Analytical Biochemistry, No. 166, pp. 368-379, 1987) and transferred to a nitrocellulose membrane (BioRad). Then, an antibody specific to phosphorylated HER2 (Cell signaling technology, Code# 2244), an AMPK antibody specific to AMPK (Cell signaling technology, Code# 2535) and an anti-phosphorylated AMPK antibody specific to phosphorylated AMPK (Cell signaling technology, Code# 2532) were used to detect the antibody by chemiluminescent detection with an ECL system (Amersham) to quantify an amount of phosphorylated protein with LAS-1000 plus image analysis device (FUJIFILM).
# Human HER2-expressing human breast cancer cell line BT-474 (purchased from American Tissue Culture Collection (ATCC)) was seeded into a 24-multiwell plate (BT-474: 1.2 x 10^5 cells/well) and cultured overnight in a carbon dioxide gas incubator (5% CO2, 37°C). […]
# [12] = system: phosphorylated acetyl-CoA carboxylase (ACC); experiment: Western blotting of phosphorylated ACC in BT-474 cells; assay type: cell-based, human; details: Example 7, two hours, antimycin 1-0.01 nmol/L, oligomycin 100-1 ng/mL, 2,4-dinitrophenol 300-3 µmol/L
# Experimental: (§8) Human HER2-expressing human breast cancer cell line BT-474 (purchased from American Tissue Culture Collection (ATCC)) was seeded into a 24-multiwell plate (BT-474: 1.2 x 10^5 cells/well) and cultured overnight in a carbon dioxide gas incubator (5% CO2, 37°C). As an energy metabolism inhibitor having a mechanism that differed from that of rotenone, mitochondrial respiratory chain complex III-inhibiting compound antimycin (Wako Pure Chemical Industries) was added to final concentrations of 1, 0.3, 0.1, 0.03 and 0.01 nmol/L while continuing culture. Using another plate, mitochondrial respiratory chain complex V-inhibiting compound oligomycin (Wako Pure Chemical Industries) was added to final concentrations of 100, 30, 10, 3 and 1 ng/mL while continuing culture. In addition, 2,4-dinitrophenol was added to 300, 100, 30, 10 and 3 µmol/L while continuing culture. Two hours after the addition of the agent, the broth was removed and the cells were lysed with an SDS sample buffer (200 µL). Then, this cell lysate was used to perform western blotting analysis. Specifically, this cell lysate (8 µL) was separated by an SDS-PAGE method (gel concentration: 7.5-15%) (Analytical Biochemistry, No. 166, pp. 368-379, 1987) and transferred onto a nitrocellulose membrane (BioRad). Then, an antibody specific to phosphorylated HER2 (Cell signaling technology, Code# 2244), pACC antibody specific to phosphorylated acetyl-CoA carboxylase (ACC) (Cell signaling technology, Code# 3661) and anti-phosphorylated S6K antibody specific to phosphorylated S6 kinase (S6K) (Cell signaling technology, Code# 9209) were used to detect the antibody by chemiluminescent detection with an ECL system (Amersham) to quantify an amount of phosphorylated protein with LAS-1000 plus image analysis device (FUJIFILM).
# [13] = system: phosphorylated S6 kinase (S6K); experiment: Western blotting of phosphorylated S6K in BT-474 cells; assay type: cell-based, human; details: Example 7, two hours, antimycin 1-0.01 nmol/L, oligomycin 100-1 ng/mL, 2,4-dinitrophenol 300-3 µmol/L
# Experimental: as §8
# [14] = Example 5, 3-fold dilution series from 15 mmol/L in 5 steps, two hours
# [15] = Example 2, 4-fold dilution series from 1 µmol/L in 5 steps, 2 hours
smiles,measurement,setting,value
O=CC[C@@H](O)[C@H](O)[C@H](O)CO [2-deoxyglucose],Akt phosphorylation,Akt [1],suppressed phosphorylation of each protein
same,HER2 phosphorylation,HER2 [2],suppressed phosphorylation of each protein
same,MAPK phosphorylation,MAPK [3],suppressed phosphorylation of each protein
CN(C)C(=N)N=C(N)N [metformin],minimum concentrations for inhibiting cell proliferation for 50% or more,"[4]; MB231, HER2-nonexpressing cancer",>25 mmol/L
same,minimum concentrations for inhibiting cell proliferation for 50% or more,"A498 kidney cancer cell; A498, HER2-nonexpressing cancer",>25 mmol/L
same,MAPK phosphorylation,MAPK [5]; [14],suppressions of Akt and MAPK phosphorylations were also confirmed
same,minimum concentrations for inhibiting cell proliferation for 50% or more,[6],5 mmol/L
same,minimum concentrations for inhibiting cell proliferation for 50% or more,"[7]; BT474, HER2-expressing cancer",1 mmol/L
same,minimum concentrations for inhibiting cell proliferation for 50% or more,"[8]; LNCaP, HER2-expressing cancer",1 mmol/L
same,minimum concentrations for inhibiting cell proliferation for 50% or more,"[9]; MB453, HER2-expressing cancer",1 mmol/L
same,minimum concentrations for inhibiting cell proliferation for 50% or more,DU145,>25 mmol/L
same,Akt phosphorylation,Akt [10]; [14],suppressions of Akt and MAPK phosphorylations were also confirmed
same,HER2 phosphorylation,HER2 [11]; [14],concentration-dependent suppression of HER2 phosphorylation
CC[C@H]1/C=C/C=C/C[C@@H](C)[C@H](O)[C@@](C)(O)C(=O)[C@@H](C)[C@H](O)[C@@H](C)C(=O)[C@@H](C)[C@H](O)[C@@H](C)/C=C/C(=O)O[C@@H]2[C@H](C)[C@H](CC1)O[C@]1(CC[C@H](C)[C@H](C[C@@H](C)O)O1)[C@H]2C [oligomycin],MAPK phosphorylation,MAPK [5]; [15],suppressions of Akt and MAPK phosphorylations were also confirmed
same,phosphorylation of ACC,[12],increased dose-dependently
same,Akt phosphorylation,Akt [10]; [15],suppressions of Akt and MAPK phosphorylations were also confirmed
same,HER2 phosphorylation,HER2 [11]; [15],suppression of HER2 phosphorylation was confirmed
same,HER2 phosphorylation,"HER2 [11]; Example 7, two hours, antimycin 1-0.01 nmol/L, oligomycin 100-1 ng/mL, 2,4-dinitrophenol 300-3 µmol/L",decreased dose-dependently
same,phosphorylation of S6K,[13],suppressed
Cc1c(C)c2c(c(C)c1O)CCC(C)(COc1ccc(CC3SC(=O)NC3=O)cc1)O2 (stereo not drawn) [troglitazone],inhibition at 25 µM,"[4]; Homo sapiens, 120 h, MDA-MB-231 cell, HER2-nonexpressing, 25 µmol/L, read-out: proliferation inhibited to (remaining cellular quantity in % with respect to that of the control)",100%
same,inhibition at 25 µM,"A498 kidney cancer cell; Homo sapiens, 120 h, A498 cell, HER2-nonexpressing, 25 µmol/L, read-out: proliferation inhibited to (remaining cellular quantity in % with respect to that of the control)",105%
same,inhibition at 25 µM,"[7]; Homo sapiens, BT-474, 120 h, BT474 cell, 25 µmol/L, read-out: proliferation inhibited to (remaining cellular quantity in % with respect to that of the control)",50%
same,inhibition at 25 µM,"[8]; Homo sapiens, 120 h, LNCaP cell, 25 µmol/L, read-out: proliferation inhibited to (remaining cellular quantity in % with respect to that of the control)",48%
same,inhibition at 25 µM,"[9]; Homo sapiens, MDA-MB-453, 120 h, MB453 cell, 25 µmol/L, read-out: proliferation inhibited to (remaining cellular quantity in % with respect to that of the control)",25%

# — patent EP1902732A1, “PROPHYLACTIC/THERAPEUTIC AGENT FOR HER2-EXPRESSING CANCER” (Takeda Pharmaceutical Company Limited, priority 2005, dated 2006)
